Test results reported in ChEMBL document CHEMBL2331421, “Amino acid derived quinazolines as Rock/PKA inhibitors” (Bioorg Med Chem Lett, 2013).

How the values were obtained:
[1] = target: T1, CYP1A2 (Homo sapiens, UniProt P05177); test: Inhibition of CYP1A2 (unknown origin) at 10 uM relative to control; type: ADME
T1 sequence (P05177 whole entry): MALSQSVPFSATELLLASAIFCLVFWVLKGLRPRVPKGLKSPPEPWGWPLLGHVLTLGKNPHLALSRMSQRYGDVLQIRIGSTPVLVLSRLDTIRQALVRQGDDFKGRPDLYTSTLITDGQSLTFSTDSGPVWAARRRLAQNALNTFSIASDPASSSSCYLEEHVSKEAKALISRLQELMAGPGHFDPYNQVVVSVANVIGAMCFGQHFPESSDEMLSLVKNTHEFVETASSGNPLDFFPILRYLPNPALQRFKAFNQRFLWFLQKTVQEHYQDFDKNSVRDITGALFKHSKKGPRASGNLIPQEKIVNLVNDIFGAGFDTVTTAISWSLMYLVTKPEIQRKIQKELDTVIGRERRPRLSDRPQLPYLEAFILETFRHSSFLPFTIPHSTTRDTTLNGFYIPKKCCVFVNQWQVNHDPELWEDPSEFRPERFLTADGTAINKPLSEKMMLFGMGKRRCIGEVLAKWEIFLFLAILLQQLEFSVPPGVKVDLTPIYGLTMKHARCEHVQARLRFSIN

[2] = target: Mitogen-activated protein kinase 8 (Homo sapiens, UniProt P45983); test: Inhibition of JNK1 (unknown origin)
[3] = target: Rho-associated protein kinase 2 (Homo sapiens, UniProt O75116); test: Inhibition of human recombinant 6-His-tagged ROCK2 expressed in baculovirus-infected Sf9 cells using LCB-AKRRRLSSLRA-NH2 as substrate after 25 mins by TR-FRET assay
[4] = target: CYP3A4 (Homo sapiens, UniProt P08684); test: Inhibition of CYP3A4 (unknown origin) at 10 uM relative to control; type: ADME
[5] = target: CYP2C9 (Homo sapiens, UniProt P11712); test: Inhibition of CYP2C9 (unknown origin) at 10 uM relative to control; type: ADME
[6] = target: Mitogen-activated protein kinase 14 (Homo sapiens, UniProt Q16539); test: Inhibition of p38alpha (unknown origin)
[7] = target: Mitogen-activated protein kinase 10 (Homo sapiens, UniProt P53779); test: Inhibition of JNK3 (unknown origin)
[8] = Half life in human liver microsomes; type: ADME, Microsome
[9] = Inhibition of PKA (unknown origin); parameters: species or system Homo sapiens
[10] = target: Serine/threonine-protein kinase MRCK alpha (Homo sapiens, UniProt Q5VT25); test: Inhibition of MRCKalpha (unknown origin)
[11] = target: CYP2D6 (Homo sapiens, UniProt P10635); test: Inhibition of CYP2D6 (unknown origin) at 10 uM relative to control; type: ADME
[12] = target: Mitogen-activated protein kinase 9 (Homo sapiens, UniProt P45984); test: Inhibition of JNK2 (unknown origin)
[13] = Inhibition of ROCK in rat A7r5 cells assessed as inhibition of myosin light chain bisphosphorylation by Western blot analysis; type: cell-based
[14] = target: Rho-associated protein kinase 1 (Homo sapiens, UniProt Q13464); test: Inhibition of ROCK1 (unknown origin)
Rho-associated protein kinase 1, sequence (Q13464 whole entry): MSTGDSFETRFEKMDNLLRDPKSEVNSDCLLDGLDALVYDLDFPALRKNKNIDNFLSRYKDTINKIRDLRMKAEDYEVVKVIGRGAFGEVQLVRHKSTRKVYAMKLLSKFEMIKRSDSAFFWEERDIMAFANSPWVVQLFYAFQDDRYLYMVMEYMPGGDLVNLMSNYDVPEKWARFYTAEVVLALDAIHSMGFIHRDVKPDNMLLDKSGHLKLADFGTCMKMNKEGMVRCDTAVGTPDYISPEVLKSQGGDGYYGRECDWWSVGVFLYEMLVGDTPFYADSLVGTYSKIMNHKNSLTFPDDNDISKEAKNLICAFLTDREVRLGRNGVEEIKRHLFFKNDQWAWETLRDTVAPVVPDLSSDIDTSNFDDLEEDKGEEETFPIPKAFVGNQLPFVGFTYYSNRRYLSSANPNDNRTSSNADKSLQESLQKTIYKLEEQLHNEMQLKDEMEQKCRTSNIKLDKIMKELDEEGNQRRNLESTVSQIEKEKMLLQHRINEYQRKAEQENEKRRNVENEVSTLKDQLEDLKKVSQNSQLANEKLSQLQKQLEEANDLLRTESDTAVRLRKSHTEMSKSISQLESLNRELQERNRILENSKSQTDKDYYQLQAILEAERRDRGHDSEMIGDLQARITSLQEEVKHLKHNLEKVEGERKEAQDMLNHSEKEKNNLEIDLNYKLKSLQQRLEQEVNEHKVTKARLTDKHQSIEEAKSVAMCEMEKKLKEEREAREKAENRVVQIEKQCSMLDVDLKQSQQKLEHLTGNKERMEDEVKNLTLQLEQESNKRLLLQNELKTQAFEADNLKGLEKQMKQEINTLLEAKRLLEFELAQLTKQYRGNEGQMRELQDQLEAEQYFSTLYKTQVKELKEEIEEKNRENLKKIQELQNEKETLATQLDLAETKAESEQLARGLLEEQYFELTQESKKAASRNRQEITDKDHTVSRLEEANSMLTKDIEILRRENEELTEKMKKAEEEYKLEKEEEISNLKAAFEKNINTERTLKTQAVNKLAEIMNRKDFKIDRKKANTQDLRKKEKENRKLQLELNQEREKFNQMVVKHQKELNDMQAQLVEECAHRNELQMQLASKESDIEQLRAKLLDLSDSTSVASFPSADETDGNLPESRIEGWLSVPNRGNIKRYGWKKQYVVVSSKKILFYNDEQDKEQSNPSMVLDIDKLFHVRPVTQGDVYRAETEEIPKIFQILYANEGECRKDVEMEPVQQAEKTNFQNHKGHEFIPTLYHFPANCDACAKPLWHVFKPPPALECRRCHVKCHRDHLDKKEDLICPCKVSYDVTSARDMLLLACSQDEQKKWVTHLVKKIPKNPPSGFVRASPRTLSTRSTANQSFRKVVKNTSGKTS

Mitogen-activated protein kinase 14, sequence (Q16539 whole entry): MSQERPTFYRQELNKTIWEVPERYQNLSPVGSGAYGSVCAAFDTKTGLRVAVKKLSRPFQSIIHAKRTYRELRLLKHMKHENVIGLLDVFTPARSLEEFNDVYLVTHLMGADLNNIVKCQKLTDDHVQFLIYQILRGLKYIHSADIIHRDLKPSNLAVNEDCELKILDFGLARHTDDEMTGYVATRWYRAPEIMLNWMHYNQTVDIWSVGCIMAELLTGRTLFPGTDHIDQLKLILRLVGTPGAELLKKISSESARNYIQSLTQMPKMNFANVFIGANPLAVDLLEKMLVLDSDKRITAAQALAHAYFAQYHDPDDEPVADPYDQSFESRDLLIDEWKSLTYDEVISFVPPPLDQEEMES
CYP2D6, sequence (P10635 whole entry): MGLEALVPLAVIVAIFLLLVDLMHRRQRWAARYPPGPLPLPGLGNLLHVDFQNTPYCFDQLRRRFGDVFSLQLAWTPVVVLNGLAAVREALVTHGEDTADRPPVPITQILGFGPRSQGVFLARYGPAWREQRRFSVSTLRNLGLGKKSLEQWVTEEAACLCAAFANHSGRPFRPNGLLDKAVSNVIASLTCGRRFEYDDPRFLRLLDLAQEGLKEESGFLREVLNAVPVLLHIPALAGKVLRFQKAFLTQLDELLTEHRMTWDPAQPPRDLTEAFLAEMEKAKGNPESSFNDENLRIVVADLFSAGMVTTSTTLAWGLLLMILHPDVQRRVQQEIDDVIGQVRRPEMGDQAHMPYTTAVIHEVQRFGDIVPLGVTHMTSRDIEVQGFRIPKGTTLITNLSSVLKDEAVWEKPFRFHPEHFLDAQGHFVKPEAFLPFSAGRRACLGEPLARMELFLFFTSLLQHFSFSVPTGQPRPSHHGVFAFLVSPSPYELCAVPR
Serine/threonine-protein kinase MRCK alpha, sequence (Q5VT25 whole entry): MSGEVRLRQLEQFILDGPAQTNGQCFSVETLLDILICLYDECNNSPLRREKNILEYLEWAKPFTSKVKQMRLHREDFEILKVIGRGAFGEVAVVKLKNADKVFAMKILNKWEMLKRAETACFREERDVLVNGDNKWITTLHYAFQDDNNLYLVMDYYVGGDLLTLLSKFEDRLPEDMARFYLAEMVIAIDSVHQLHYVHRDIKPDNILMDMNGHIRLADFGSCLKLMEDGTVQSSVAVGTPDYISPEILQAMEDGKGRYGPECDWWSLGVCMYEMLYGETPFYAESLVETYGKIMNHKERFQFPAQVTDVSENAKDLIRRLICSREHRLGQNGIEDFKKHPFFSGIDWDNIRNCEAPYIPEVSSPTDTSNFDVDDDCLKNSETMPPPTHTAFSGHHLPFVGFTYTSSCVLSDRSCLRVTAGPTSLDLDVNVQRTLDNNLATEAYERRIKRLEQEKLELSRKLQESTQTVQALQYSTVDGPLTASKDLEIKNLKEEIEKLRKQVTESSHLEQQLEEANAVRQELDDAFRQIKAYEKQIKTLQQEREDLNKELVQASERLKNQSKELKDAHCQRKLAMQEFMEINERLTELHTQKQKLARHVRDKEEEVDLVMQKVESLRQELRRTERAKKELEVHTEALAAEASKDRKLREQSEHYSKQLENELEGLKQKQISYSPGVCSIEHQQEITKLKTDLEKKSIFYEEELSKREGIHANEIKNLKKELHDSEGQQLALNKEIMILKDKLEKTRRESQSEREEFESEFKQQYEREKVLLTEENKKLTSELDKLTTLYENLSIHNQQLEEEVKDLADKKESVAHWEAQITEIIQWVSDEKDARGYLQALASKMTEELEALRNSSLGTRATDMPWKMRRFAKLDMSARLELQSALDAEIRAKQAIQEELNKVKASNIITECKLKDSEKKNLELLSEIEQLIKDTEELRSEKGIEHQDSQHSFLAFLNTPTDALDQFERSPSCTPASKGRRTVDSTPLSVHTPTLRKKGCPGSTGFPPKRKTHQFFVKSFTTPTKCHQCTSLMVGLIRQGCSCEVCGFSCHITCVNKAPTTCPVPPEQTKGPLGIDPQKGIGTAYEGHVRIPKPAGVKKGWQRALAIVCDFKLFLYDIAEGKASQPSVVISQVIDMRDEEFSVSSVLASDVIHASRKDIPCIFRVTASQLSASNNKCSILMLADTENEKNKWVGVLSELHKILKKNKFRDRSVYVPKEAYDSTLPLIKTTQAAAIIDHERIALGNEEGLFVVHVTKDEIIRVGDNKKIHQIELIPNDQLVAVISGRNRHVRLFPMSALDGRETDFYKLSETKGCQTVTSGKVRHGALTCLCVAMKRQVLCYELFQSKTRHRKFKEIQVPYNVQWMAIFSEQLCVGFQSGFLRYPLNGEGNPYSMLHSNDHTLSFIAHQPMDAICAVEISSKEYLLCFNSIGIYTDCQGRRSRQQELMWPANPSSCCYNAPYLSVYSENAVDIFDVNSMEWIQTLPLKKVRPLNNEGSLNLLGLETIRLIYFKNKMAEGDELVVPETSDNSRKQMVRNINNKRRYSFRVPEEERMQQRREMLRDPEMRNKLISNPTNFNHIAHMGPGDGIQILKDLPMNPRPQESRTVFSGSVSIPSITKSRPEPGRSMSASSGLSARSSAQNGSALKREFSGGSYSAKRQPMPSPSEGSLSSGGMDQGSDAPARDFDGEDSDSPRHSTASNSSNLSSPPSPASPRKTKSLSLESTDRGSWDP
Mitogen-activated protein kinase 9, sequence (P45984 whole entry): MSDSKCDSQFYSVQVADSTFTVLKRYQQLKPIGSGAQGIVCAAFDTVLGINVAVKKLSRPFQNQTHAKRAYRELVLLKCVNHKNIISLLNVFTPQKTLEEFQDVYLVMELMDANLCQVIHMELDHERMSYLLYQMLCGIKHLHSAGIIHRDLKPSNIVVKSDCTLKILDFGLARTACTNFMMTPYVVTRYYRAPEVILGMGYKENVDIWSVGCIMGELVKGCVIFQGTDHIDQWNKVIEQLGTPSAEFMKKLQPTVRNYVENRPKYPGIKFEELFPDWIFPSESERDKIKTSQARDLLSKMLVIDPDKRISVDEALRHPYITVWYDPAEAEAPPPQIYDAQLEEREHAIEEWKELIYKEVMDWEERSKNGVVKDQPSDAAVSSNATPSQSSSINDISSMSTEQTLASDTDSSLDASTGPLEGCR
CYP2C9, sequence (P11712 whole entry): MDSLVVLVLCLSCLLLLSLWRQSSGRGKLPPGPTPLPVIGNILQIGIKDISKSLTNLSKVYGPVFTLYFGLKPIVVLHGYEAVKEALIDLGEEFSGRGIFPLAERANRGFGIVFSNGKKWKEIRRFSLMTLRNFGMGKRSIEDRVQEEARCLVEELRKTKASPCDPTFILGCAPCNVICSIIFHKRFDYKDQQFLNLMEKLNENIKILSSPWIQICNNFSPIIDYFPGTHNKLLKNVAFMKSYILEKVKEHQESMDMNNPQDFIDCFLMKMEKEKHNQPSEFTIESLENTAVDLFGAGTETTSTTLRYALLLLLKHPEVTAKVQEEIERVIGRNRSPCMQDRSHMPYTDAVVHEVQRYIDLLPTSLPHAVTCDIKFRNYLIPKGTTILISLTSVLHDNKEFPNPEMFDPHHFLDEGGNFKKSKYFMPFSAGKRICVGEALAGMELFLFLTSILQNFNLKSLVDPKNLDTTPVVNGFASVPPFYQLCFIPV

SMILES | IC50 [3] [µM] | IC50 [9] [µM] | also measured
NCCC(=O)NC(c1ccc(Cl)cc1)c1nc2ccc(-c3cn[nH]c3)cc2c(=O)[nH]1 (stereo unspecified) | 0.006 | 0.021 | –
NCc1ccc(C(=O)NC(c2ccc(Cl)cc2)c2nc3ccc(-c4cn[nH]c4)cc3c(=O)[nH]2)cc1 (stereo unspecified) | 0.018 | 0.096 | inhibition at 10 µM [1]: 90%; IC50 [2]: > 1 µM; IC50 [14]: 0.022 µM; inhibition at 10 µM [4]: 63%; inhibition at 10 µM [5]: 94%; IC50 [6]: > 1 µM; IC50 [7]: > 1 µM; half-life [8]: 7 h; IC50 [10]: > 1 µM; inhibition at 10 µM [11]: 96%; IC50 [12]: > 1 µM
NCc1cccc(C(=O)NC(c2ccc(Cl)cc2)c2nc3ccc(-c4cn[nH]c4)cc3c(=O)[nH]2)c1 (stereo unspecified) | 0.02 | 0.028 | –
CN(C)CCN(C)c1nc([C@H](N)Cc2cccc(F)c2)nc2ccc(-c3cn[nH]c3)cc12 | 0.627 | 1.16 | –
CN(CCO)c1nc([C@H](N)Cc2cccc(F)c2)nc2ccc(-c3cn[nH]c3)cc12 | 0.027 | 0.044 | –
CN(CCCO)c1nc([C@H](N)Cc2cccc(F)c2)nc2ccc(-c3cn[nH]c3)cc12 | 0.159 | – | –
CN(CCO)c1nc([C@@H](N)Cc2cccc(F)c2)nc2ccc(-c3cn[nH]c3)cc12 | 0.027 | 0.284 | –
CN(C)c1nc([C@@H](N)Cc2cccc(F)c2)nc2ccc(-c3cn[nH]c3)cc12 | 0.067 | 0.259 | –
COc1cc(-c2cn[nH]c2)cc2c(=O)[nH]c(C(N)c3ccc(Cl)cc3)nc12 (stereo unspecified) | 0.009 | 0.014 | –
COc1cc(-c2cn[nH]c2)cc2c(=O)[nH]c(C(N)c3cccc(Cl)c3)nc12 (stereo unspecified) | 0.008 | 0.011 | inhibition at 10 µM [1]: 54%; IC50 [2]: > 1 µM; IC50 [14]: 0.008 µM; inhibition at 10 µM [4]: 80%; inhibition at 10 µM [5]: 79%; IC50 [6]: > 1 µM; IC50 [7]: > 1 µM; half-life [8]: 0.85 h; IC50 [10]: > 1 µM; inhibition at 10 µM [11]: 63%; IC50 [12]: > 1 µM
O=C(Cc1cccnc1)N[C@H](Cc1ccc(Cl)cc1)c1nc2ccc(-c3cn[nH]c3)cc2c(=O)[nH]1 | 0.239 | – | –
CCN[C@H](Cc1ccc(Cl)cc1)c1nc2ccc(-c3cn[nH]c3)cc2c(=O)[nH]1 | 0.014 | 0.017 | –
COc1cc(-c2cn[nH]c2)cc2c(=O)[nH]c([C@@H](N)Cc3cccc(F)c3)nc12 | 0.008 | 0.026 | –
COc1ccc(C[C@H](N)c2nc3ccc(-c4cn[nH]c4)cc3c(=O)[nH]2)cc1 | 0.004 | 0.008 | inhibition at 10 µM [1]: 10%; IC50 [2]: > 1 µM; IC50 [14]: 0.016 µM; inhibition at 10 µM [4]: 53%; inhibition at 10 µM [5]: 52%; IC50 [6]: > 1 µM; IC50 [7]: > 1 µM; half-life [8]: 0.35 h; IC50 [10]: > 1 µM; inhibition at 10 µM [11]: 76%; IC50 [12]: > 1 µM
CCOc1ccc(C[C@H](N)c2nc3ccc(-c4cn[nH]c4)cc3c(=O)[nH]2)cc1 | 0.019 | 0.06 | –
COc1ccc(C[C@H](N)c2nc3ccc(-c4cn[nH]c4)cc3c(=O)[nH]2)cc1OC | 0.039 | 0.038 | –
N[C@H](Cc1ccc(F)c(F)c1)c1nc2ccc(-c3cn[nH]c3)cc2c(=O)[nH]1 | 0.007 | 0.012 | –
N[C@H](Cc1cccc(C(F)(F)F)c1)c1nc2ccc(-c3cn[nH]c3)cc2c(=O)[nH]1 | 0.016 | 0.028 | –
N[C@H](Cc1ccc(Cl)cc1)c1nc2ccc(-c3cn[nH]c3)cc2c(=O)[nH]1 | 0.004 | 0.005 | –

The next lines start with results.

IC50 [3] [µM] | IC50 [9] [µM] | SMILES | also measured
0.0025 | 0.279 | CN(C)c1nc([C@@H]2CNC[C@H]2c2ccccc2)nc2ccc(-c3cn[nH]c3)cc12 | inhibition at 10 µM [1]: 49%; IC50 [2]: > 1 µM; inhibition at 10 µM [4]: 77%; inhibition at 10 µM [5]: 47%; IC50 [6]: > 1 µM; IC50 [7]: > 1 µM; half-life [8]: 1.43 h; IC50 [10]: > 1 µM; inhibition at 10 µM [11]: 88%; IC50 [12]: > 1 µM; IC50 [13]: 0.8 µM
0.071 | 0.443 | Fc1ccc([C@@H]2CNC[C@H]2c2nc(N3CCC3)c3cc(-c4cn[nH]c4)ccc3n2)cc1 | –
0.371 | 0.884 | CN(C)CCNc1nc([C@@H]2CNC[C@H]2c2ccc(F)cc2)nc2ccc(-c3cn[nH]c3)cc12 | –
0.004 | 0.023 | C[N+]1(C)C[C@@H](c2ccccc2)[C@H](c2nc3ccc(-c4cn[nH]c4)cc3c(=O)[nH]2)C1 | –
0.01 | 0.009 | NC(c1ccc(Cl)cc1)c1nc2ccc(-c3cn[nH]c3)cc2c(=O)[nH]1 (stereo unspecified) | –
0.002 | 0.007 | O=c1[nH]c([C@@H]2CNC[C@H]2c2ccc(F)cc2)nc2ccc(-c3cn[nH]c3)cc12 | –
0.002 | 0.006 | O=c1[nH]c([C@@H]2CNC[C@H]2c2ccc(C(F)(F)F)cc2)nc2ccc(-c3cn[nH]c3)cc12 | –
0.088 | 0.117 | COc1ccc([C@@H]2CN(Cc3ccccc3)C[C@H]2c2nc3ccc(-c4cn[nH]c4)cc3c(=O)[nH]2)cc1 | –
0.225 | 0.423 | O=c1[nH]c([C@@H]2CN(Cc3ccccc3)C[C@H]2c2cccc(F)c2)nc2ccc(-c3cn[nH]c3)cc12 | –
0.049 | 0.233 | O=c1[nH]c([C@@H]2CN(Cc3ccccc3)C[C@H]2c2ccccc2F)nc2ccc(-c3cn[nH]c3)cc12 | –
0.008 | 0.017 | N[C@H](Cc1ccc(F)cc1)c1nc2ccc(-c3cn[nH]c3)cc2c(=O)[nH]1 | inhibition at 10 µM [1]: 19%; IC50 [2]: > 1 µM; IC50 [14]: 0.008 µM; inhibition at 10 µM [4]: 37%; inhibition at 10 µM [5]: 36%; IC50 [6]: > 1 µM; IC50 [7]: > 1 µM; half-life [8]: 1.08 h; IC50 [10]: > 1 µM; inhibition at 10 µM [11]: 89%; IC50 [12]: > 1 µM
0.013 | 0.006 | N[C@H](Cc1cccc(Cl)c1)c1nc2ccc(-c3cn[nH]c3)cc2c(=O)[nH]1 | –
0.01 | 0.009 | N[C@H](Cc1cccc(F)c1)c1nc2ccc(-c3cn[nH]c3)cc2c(=O)[nH]1 | –
0.052 | 0.049 | N[C@@H](Cc1ccccc1)c1nc2ccc(-c3ccncc3)cc2c(=O)[nH]1 | –
0.012 | 0.007 | N[C@@H](Cc1ccccc1)c1nc2ccc(-c3cn[nH]c3)cc2c(=O)[nH]1 | –
0.098 | – | COc1ccc(C(N)c2nc3ccc(-c4c[nH]nc4C)cc3c(=O)[nH]2)cc1 (stereo unspecified) | –
0.043 | 0.02 | COc1ccc(C(N)c2nc3ccc(-c4cn[nH]c4)cc3c(=O)[nH]2)cc1 (stereo unspecified) | inhibition at 10 µM [1]: -1%; IC50 [2]: > 1 µM; IC50 [14]: 0.048 µM; inhibition at 10 µM [4]: 40%; inhibition at 10 µM [5]: 37%; IC50 [6]: > 1 µM; IC50 [7]: > 1 µM; half-life [8]: 1.07 h; IC50 [10]: > 1 µM; inhibition at 10 µM [11]: 36%; IC50 [12]: > 1 µM
0.023 | 0.029 | O=c1[nH]c([C@@H]2CNC[C@H]2c2ccccc2)nc2ccc(-c3ccncc3)cc12 | –
0.006 | 0.01 | Nc1nccc(-c2ccc3nc([C@@H]4CNC[C@H]4c4ccccc4)[nH]c(=O)c3c2)n1 | –
0.007 | 0.007 | Cc1n[nH]cc1-c1ccc2nc([C@@H]3CNC[C@H]3c3ccccc3)[nH]c(=O)c2c1 | –
